The source of these data is US9493539B2, “Peptides associated with HLA-DR MHC class II molecules involved in autoimmune diseases” (LONDON HEALTH SCIENCES CENTRE RESEARCH INC., priority 2003, dated 2016).

Square brackets hold non-standard residues; d marks the D form. Ends that are not written are not given here. Cit = NC(=O)NCCC[C@H](N)C(=O)O

Assay [1] deals with draining lymph node cells. Kind of assay: IFN-γ production by ELISA after in vitro challenge with immunizing peptide. It is filed as cell-based, mouse. To be noted: DR4-IE tg mice immunized with the peptide. As for the experimental part:
(§1) DR4 tg mice were immunized intradermally at the interior side of both hind legs with 100 μl of peptide (1 μg/μl) emulsified in CFA (Difco Laboratories, Detroit, Mich.) in a 1:1 volume ratio. After 10 days, mice were sacrificed and their draining lymph nodes were removed for in vitro proliferation and cytokine assays.
(§2) Cell suspensions were prepared from the draining lymph nodes and cultured in 96-well plates at a concentration of 4×10^5 cells/well in the presence or absence of peptide antigen for 4 days. Anti-DR antibody (BD PharMingen, Mississauga, ON) was added to some cultures (1 μg/ml) to confirm DR restricted T cell responses as described previously (Andersson E C, Hansen B E, Jacobsen H, Madsen L S, Andersen C B, Engberg J, Rothbard J B, McDevitt G S, Malmstrom V, Holmdahl R, Svejgaard A, Fugger L. 1998. Definition of MHC and T cell receptor contacts in the HLA-DR4 restricted immunodominant epitope in type II collagen and characterization of collagen-induced arthritis in HLA-DR4 and human CD4 transgenic mice. Proc. Natl. Acad. Sci. USA. 95:7574). Culture supernatants were removed after 78 hrs to test IFN-γ production by ELISA (BD PharMingen, Mississauga, ON) as described previously (Hill, J. A., Wang, D., Jevnikar, A. M., Cairns, E., Bell, D. A. 2002. The relationship between predicted peptide-MHC class II affinity and T cell activation in a HLA-DRβ1*0401 MHC class II mouse model. Arthritis Res. 5:R40). Cytokine production was measured in duplicate and represents the average antigen specific cytokine production (cytokine production in control samples+2 SD were subtracted from the peptide specific cytokine production)±SD. Eighteen hours before culture termination, 1 μCi of [^3H] thymidine (ICN Biomedicals, Montreal, PQ) was added to each well to assess T cell proliferation. Proliferation experiments were conducted in triplicate and results are presented as average proliferation in cpm±SD or stimulation index (cpm of experimental sample/cpm of control sample)±SEM.
Background: An ELISA detects its analyte on a solid surface through an enzyme-linked reagent.

Assay [2] relates to draining lymph node cells. Kind of assay: T cell proliferation recall response ([3H] thymidine) after peptide immunization of DR4-IE tg mice. It is filed as cell-based, mouse. To be noted: for T cell proliferative response: DR4-IE tg mice immunized with the peptide, 10 days later cells challenged in vitro with same peptide; for proliferative response in presence of anti-DR antibody: immunizing peptide plus anti-DR antibody. As for the experimental part: as §1, §2

In a further assay the target is HLA-DRB1*0101 (Homo sapiens, UniProt P01903+P01911, A100R/D57E/F55L/F60I/F76Y/I96L/L162R/M171V/P40L/Q125E/R42F/V115G/Y59C). The assay can be described thus: Peptide-binding (competition) assay to purified MHC class II. To be noted: DRB1*0101, shared epitope positive. As for the experimental part:
(§3) Peptide binding affinity to purified HLA-DRB1*0101, *0401, *0404, *0301, *0701, *0802, *1101, and *1302 molecules was determined relative to radio-labelled peptide probes as described previously (Southwood S, Sidney J, Kondo A, del Guercio M F, Appella E, Hoffman S, Kubo R T, Chesnut R W, Grey H M, Sette A. 1998. Several common HLA-DR types share largely overlapping peptide binding repertoires. J. Immunol. 160:3363). The nM concentration of unlabelled vimentin peptide necessary for 50% inhibition of the labelled peptide to the purified HLA-DRB1 molecules (IC50) was used as an approximation of the affinity of interaction ([…]). Results are expressed as the inverse of the IC50 values measured in nM.

The next assay has as its target HLA-DRB1*0404 (Homo sapiens, UniProt P01903+P01911, A100R/A169T/F76Y/I96L/K127E/L162R/M171V/N62H/P40V/Q125Y/R42H/S133A/S149N/S66Y/V209L/W38E). The description is as above. As to conditions: DRB1*0404, shared epitope positive. As to the method: as §3
The next assay deals with HLA-DRB1*0401 (Homo sapiens, UniProt P01903+P01911, A100K/A169T/F76Y/I96L/K127E/L162R/M171V/N62H/P40V/Q125Y/R42H/S133A/S149N/S66Y/V115G/V209L/W38E). The assay is described as above. As to conditions: DRB1*0401, shared epitope positive. As to the method:
as §3

The test system of assay [3] is shared epitope negative (DRB1*0301, *0701, *0802, *1101, *1302). The assay is described as above. Details: species or system human. As for the experimental part:
as §3

For the substance “AGWLACitRSVRYPI (AGWLA[Cit]RSVRYPI) [P4Cit, altered human aggrecan peptide 280-292]”, the IFN-γ production entry in assay [1] is given as “induced”. Further, in assay [2], the “T cell proliferative response” value is listed as “induced” and the “proliferative response in presence of anti-DR antibody” value (“proliferative response in presence” below) was “inhibited”.
In the case of “AGWLADRSVRYPI (Human) [P4D, human aggrecan peptide 280-292]”, in assay [1], the IFN-γ production result is listed as “accompanied by IFN-γ production”. For the same substance, in assay [2], the “T cell proliferative response” value was “strong proliferative response” and the “proliferative response in presence” value was “inhibited”.
In the case of “AGWLARRSVRYPI (Human) [P4R, altered human aggrecan peptide 280-292]”, the IFN-γ production result in assay [1] is on record as “did not induce”. Also, the “T cell proliferative response” value in assay [2] is “did not induce”.
Turning to “SAVRACitSSVPGVR (SAVRA[Cit]SSVPGVR) [Vim R70Cit, altered human vimentin peptide 65-77]”, the “relative affinity for purified MHC” value with HLA-DRB1*0101, with HLA-DRB1*0404 and with HLA-DRB1*0401 was “strikingly high affinity” in each case. Besides, the “change of peptide affinity on conversion of arginine to citrulline” value in assay [3] (vs Vim 65-77) is on record as “did not increase peptide affinity”. Moreover, in assay [1], the IFN-γ production result is reported as “accompanied by IFN-γ production”. For the same substance, the “T cell proliferative response” value in assay [2] is “strong proliferative response”. Moreover, the “proliferative response in presence” value in assay [2] was “could also be inhibited”.
With “SAVRARSSVPGVR (Human) [Vim 65-77, human vimentin peptide 65-77, unmodified]”, the “relative affinity for purified MHC” value (in the assay with HLA-DRB1*0101; in the assay with HLA-DRB1*0404; in the assay with HLA-DRB1*0401; in assay [3]) was “low to intermediate affinity” throughout. Moreover, the IFN-γ production result in assay [1] is “did not induce T cell activation”. In addition, the “T cell proliferative response” value in assay [2] was “did not induce T cell activation”. The “activation of T cells primed by Vim R70Cit” value in assay [2] (Vim R70Cit immunized mice, challenged with the unmodified peptide, 10 μg/ml) is listed as “could not be activated”.
